Reference: patent US8304577B2, “Modulators of G protein-coupled receptor 88” (Bristol-Myers Squibb Company, priority 2009, dated 2012)

The compounds below were run against G protein-coupled receptor 88 (GPR88) (Homo sapiens, UniProt Q9GZN0) (assay: GPR88 functional assay: EC50 of Table 2 (GTPγS assay and cAMP HTRF assay described; table does not say which)). Conditions: class symbol; read-out: Range (EC50).
Sequence of G protein-coupled receptor 88 (GPR88) (Q9GZN0 whole entry, species assumed): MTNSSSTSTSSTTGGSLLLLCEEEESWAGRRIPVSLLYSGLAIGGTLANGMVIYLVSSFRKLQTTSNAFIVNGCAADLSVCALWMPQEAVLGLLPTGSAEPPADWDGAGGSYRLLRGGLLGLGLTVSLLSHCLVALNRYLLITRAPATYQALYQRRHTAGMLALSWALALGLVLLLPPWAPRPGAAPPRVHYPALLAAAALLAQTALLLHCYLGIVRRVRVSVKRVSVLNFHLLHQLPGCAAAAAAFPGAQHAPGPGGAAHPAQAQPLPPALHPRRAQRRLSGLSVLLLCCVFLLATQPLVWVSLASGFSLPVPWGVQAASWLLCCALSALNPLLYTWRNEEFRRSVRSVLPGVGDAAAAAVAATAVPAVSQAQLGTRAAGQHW
Type: cell-based
Experimental: 96 well GTPγS assay plates were purchased from Perkin Elmer. Wheat Germ Agglutinin PVT SPA beads and ^35S-GTPγS were purchased from Amersham GDP, GTPγS and all buffer reagents were from Sigma. 384 well white NBS plates were purchased from corning. Pertussis toxin was purchased from Calbiochem. All cell culture reagents were purchased from Invitrogen. Forskolin was purchased from Sigma. The cAMP HTRF kit was purchased fron Cisbio International.
The GTPγS assay buffer consisted of 10 mM MgCl2, 180 mM NaCl, 200 uM GDP, 0.167 mg/mL DTT, 1 mM EGTA and 20 mM HEPES pH7.4. This buffer was used for dilution of membranes, beads, and ^35S GTPγS components. To each well of the 96 well assay plate 48 ul assay buffer, 2 ul of 100× compound, 50 ul membrane solution (0.2 ug/ul), 50 ul ^35S GTPγS solution (0.8 nM) and 50 ul of SPA beads (10 mg/mL). Non-specific binding was determined by the addition of cold GTPγS to control wells. The plates were sealed with clear sealing tape and incubated at room temperature for 1 hour. GTPγS activity was detected using a Wallac Micro-Beta Trilux liquid scintillation counter. Non-specific binding was determined using 10 uM cold GTPγS.
The cAMP HTRF assay is modified from the Cisbio International kit procedure 62AM4PEJ. Assay plates were prepared by stamping 0.1 ul of 100× compound stock solutions diluted in DMSO or DMSO alone into 384 well NBS plates. The cAMP HTRF assay was performed using cells in suspension. The cAMP HTRF assay buffer consisted of Hank's Balanced Salt Solution (HBSS), 2 mM CaCl2, 5 mM MgCl2, 20 mM HEPES and 1 mM 3-isobutyl-1-methylxanthine (IBMX) (added fresh at the time of assay). For pertussis toxin treatment pertussis toxin (100 ng/mL) was added to culture medium for 16 hours prior to assay. Confluent cells were disrupted with cell dissociation buffer count cells then centrifuged at 1000×g for 5 minutes. The cell pellet was resuspended in assay buffer alone for basal cAMP measurements or with 0.75 uM forskolin (added immediately prior to addition to wells) for addition to all other wells. Using a Multidrop 384 (Lab systems) 10 ul of cell suspension was added to each well containing compound or DMSO. The plates were incubated at room temperature for 30 minutes covered. During this time the cAMP standard curve was prepared as per manufacturer's instruction. At the end of the incubation 10 ul of anti-cAMP cryptate and 10 ul cAMP-XL, diluted in manufacturer's lysis buffer, were added to each well. The plated were incubated at room temperature for 60 minutes covered then read on an Envision plate reader (Perkin Elmer) and the 665 nm/620 nm fluorescence ratio determined Fluorescence ratio values were converted to molar cAMP concentrations from the standard curve using the GraphPad Prism program.
`CCCC(C)COc1ccc([C@H](CNC(=O)[C@H](N)C2CC2)NC(=O)[C@@H](C)c2ccccc2)cc1` (stereo partly drawn) [Example 30, (2S)-N-((1R)-2-((R)-2-Amino-2-cyclopropylacetamido)-1-(4-(2-methylpentyloxy)phenyl)ethyl)-2-phenylpropanamide] showed an EC50 of 100 to 200 nM. `CCCC(C)COc1ccc([C@H](CNC(=O)[C@H](N)CCC)NC(=O)[C@@H](C)c2ccccc2)cc1` (stereo partly drawn) [Example 31, (2R)-2-Amino-N-((2R)-2-(4-(2-methylpentyloxy)phenyl)-2-((S)-2-phenylpropanamido)ethyl)pentanamide] showed an EC50 of 100 to 200 nM. `CCCC(C)COc1ccc([C@H](CNC(=O)[C@@H](N)[C@@H](C)OC)NC(=O)[C@@H](C)c2ccccc2)cc1` (stereo partly drawn) [Example 32, (2S,3R)-2-Amino-3-methoxy-N-((2R)-2-(4-(2-methylpentyloxy)phenyl)-2-((S)-2-phenylpropanamido)ethyl)butanamide] gave an EC50 of 100 to 200 nM. `CCCC(C)COc1ccc([C@H](CNC(=O)[C@H](N)[C@@H](C)CC)NC(=O)[C@@H](C)c2ccccc2)cc1` (stereo partly drawn) [Example 33, (2R,3S)-2-Amino-3-methyl-N-((2R)-2-(4-(2-methylpentyloxy)phenyl)-2-((S)-2-phenylpropanamido)ethyl)pentanamide] gave an EC50 of 100 to 200 nM. In the case of `CCCC(C)COc1ccc([C@H](CNC(=O)[C@H](N)Cc2cscn2)NC(=O)[C@@H](C)c2ccccc2)cc1` (stereo partly drawn) [Example 34, (2R)-2-Amino-N-((2R)-2-(4-(2-methylpentyloxy)phenyl)-2-((S)-2-phenylpropanamido)ethyl)-3-(thiazol-4-yl)propanamide], the EC50 is reported as 100 to 200 nM. Work on `CCCC(C)COc1ccc([C@H](CN2CCOCC2)NC(=O)[C@@H](C)c2ccccc2)cc1` (stereo partly drawn) [Example 35, (2S)-N-((1R)-1-(4-(2-Methylpentyloxy)phenyl)-2-morpholinoethyl)-2-phenylpropanamide] yielded an EC50 of 100 to 200 nM. With `CC[C@H](C)COc1ccc([C@H](CN)NC(=O)[C@@H](C)c2ccccc2)cc1` [Example 37, (2S)-N-((1R)-2-Amino-1-[4-((S)-2-methylbutoxy)phenyl]-ethyl)-2-phenylpropionamide] the EC50 was 39 to 99 nM. Work on `CCCNC[C@H](NC(=O)[C@@H](C)c1ccccc1)c1ccc(OC[C@@H](C)CC)cc1` [Example 38, (S)-N-{(R)-1-[4-((S)-2-Methyl-butoxy)-phenyl]-2-propylamino-ethyl}-2-phenylpropionamide] yielded an EC50 of 100 to 200 nM. For `CC[C@H](C)COc1ccc([C@@H](NC(=O)[C@@H](C)c2ccccc2)[C@@H](C)O)cc1` [Example 39, (S)-N-{(1R,2R)-2-Hydroxy-1-[4-((S)-2-methyl-butoxy)-phenyl]-propyl}-2-phenylpropionamide], the EC50 was 100 to 200 nM.

Same assay, conditions: exact value given; read-out: Range (EC50)
`CC(C)COc1ccc([C@@H](NC(=O)[C@@H](C)c2ccccc2)[C@H]2CCCN2)cc1` [Example 40, (S)-N-((R)-(4-Isobutoxyphenyl)((R)-pyrrolidin-2-yl)methyl)-2-phenylpropanamide] gave an EC50 of 254 nM.
